{"source": "patent US11192865B2", "about": "“Benzosulfonyl compounds” (Vivace Therapeutics, Inc., priority 2017, dated 2021)"}
{"system": "8XTBD luciferase reporter", "assay": "YAP Reporter Assay", "type": "cell-based", "details": "Homo sapiens, HEK-293T; HEK293T cells stably transfected with 8XTBD luciferase reporter and pRLTK; 24-hr incubation; starting from 3 μM, 1:3 dilution, 10 points; read-out: Firefly Luciferase IC50", "method": "HEK293T cells stably transfected with 8XTBD luciferase reporter and pRLTK in 384-well plates were treated with the test compounds, starting from 3 μM (final concentration in assay plate), 1:3 dilution, and 10 points in quadruplicates. Post 24-hr incubation with compounds at 37° C. and 5% CO2, cells were lysed and 8XTBD-driven firefly luciferase and control TK-driven renilla luciferase activities were measured using Promega Dual-Luciferase Reporter Assay System.\nReagents: The reagents used for this study are: DMEM: Invitrogen #11960077, Dual-Glo Luciferase Assay System: Promega-E2980, Puromycin Dihydrochloride: Invitrogen-A1113803, 384-well plate: PerkinElmer-6007480, L-GLUTAMINE: Invitrogen-25030164, Hygromycin B: Invitrogen-10687010, and Penicillin-Streptomycin: Merk-TMS-AB2-C\nMedia: The media used for this assay were: Culture Medium: DMEM+1 ug/mL puromycin+200 ug/mL hygromycin (with 10% FBS+1 mM L-glutamine); and Assay Medium: DMEM (with 10% FBS+1 mM L-glutamine+1×P/S).\nCell Plating: The appropriate media was warmed at 37° C. by water bath: Culture Medium, Assay Medium, 1* D-PBS, 0.05% trypsin-EDTA. The cells were trypsinized after removing all media, then washed with 1* sterile D-PBS and then with 2 ml 0.05% trypsin-EDTA. The cells were then incubated at RT for one minute. Then 10 ml/75 cm2 flask Assay Medium was added to each flask. Using a 10 ml pipette, the cells were then gently resuspended in the media, until the clumps completely disappeared. The cells were then transferred into 50 ml centrifuge tubes and were centrifuged at 800 rpm for 5 mins. The medium was removed and the cells were resuspended with Assay Medium. An aliquot of cells was used to count the cell density (cells/ml). The cell suspension was then diluted with Assay Medium to a concentration of 6×10^4 cells/ml. 50 ul cells suspension was then plated to 384-well plate (PerkinElmer-6007480), 3×10^3 cells/well and the cells were incubated in an incubator at 37° C., 5% CO2.\nCompound Treatment: In the afternoon (incubation of the plate with 3-4 hrs), the test compounds were added by Echo, starting from 3 uM (final concentration in the assay plate), 1:3 dilution, 10 points, quadruplicates. The plate was placed at 37° C., 5% CO2 incubator for 24 hrs.\nDetection: The Dual-Glo Luciferase Reagent was prepared by transferring the contents of one bottle of Dual-Glo Luciferase Buffer to one bottle of Dual-Glo Luciferase Substrate to create the Dual-Glo Luciferase Reagent. Mixing was performed by inversion until the substrate was thoroughly dissolved. After mixing, the reagent was aliquoted into 15 ml tubes. In the afternoon (24 hrs post compound treatment), the DMEM+ medium in the 384 well plates were aspirated by Microplate Washer.\nMeasuring firefly luciferase activity: 20 ul Dual-Glo Luciferase Reagent was added to the 384-well plates. The plates were protected from light to prevent interference with the assay. The plates were shaken for 1 min followed centrifuging plates at 1000 rpm for 30 seconds. After waiting at least 10 minutes, the firefly luminescence was measured by Envision.\nMeasuring renilla luciferase activity: 20 ul Stop-Glo Reagent was added to the 384-well plates. The plates were shaken for 1 min and then centrifuged at 1000 rpm for 30 seconds. After waiting at least 10 minutes, the renilla luminescence was measured by Envision.\nCompound IC50 and maximum inhibition on the firefly luciferase and renilla luciferase activities were reported separately.", "units": {"IC50": "nM"}}
{"smiles": "CNS(=O)(=O)c1ccc(Nc2ccc(C(F)(F)F)c(Cl)c2)c(-c2cn(C)cn2)c1", "note": "[Compound 148, 4-[3-Chloro-4-(trifluoromethyl)anilino]-N-methyl-3-(1-methylimidazol-4-yl)benzenesulfonamide]", "IC50": "≤ 100"}
{"smiles": "CNS(=O)(=O)c1ccc(NC2CCCCC2)c(-c2nnn(C3CCN(C(=O)OC(C)(C)C)C3)n2)c1", "note": "(stereo not drawn) [Compound 24, tert-butyl 3-(5-(2-(cyclohexylamino)-5-(N-methylsulfamoyl)phenyl)-2H-tetrazol-2-yl)pyrrolidine-1-carboxylate]", "IC50": "> 3000"}
{"smiles": "CCn1cnc(-c2cc(S(=O)(=O)NC)ccc2NC2CCCCC2)c1", "note": "[Compound 112, 4-(cyclohexylamino)-3-(1-ethyl-1H-imidazol-4-yl)-N-methylbenzenesulfonamide]", "IC50": "≤ 100"}
{"smiles": "CNS(=O)(=O)c1ccc(Nc2cc(Cl)c(Cl)c(Cl)c2)c(-c2cn(C)cn2)c1", "note": "[Compound 145, N-methyl-3-(1-methylimidazol-4-yl)-4-(3,4,5-trichloroanilino)benzenesulfonamide]", "IC50": "≤ 100"}
{"smiles": "CNS(=O)(=O)c1ccc(NC2CCCCC2)c(-c2nnn(C(C)C)n2)c1", "note": "[Compound 26, 4-(cyclohexylamino)-3-(2-isopropyl-2H-tetrazol-5-yl)-N-methylbenzenesulfonamide]", "IC50": "≤ 100"}
{"smiles": "CNS(=O)(=O)c1ccc(NC2CCCCC2)c(-c2nnc(C)o2)c1", "note": "[Compound 105, 4-(cyclohexylamino)-N-methyl-3-(5-methyl-1,3,4-oxadiazol-2-yl)benzenesulfonamide]", "IC50": "≤ 100"}
{"smiles": "CNS(=O)(=O)c1ccc(Nc2cc(F)ccc2F)c(-c2nnnn2C)c1", "note": "[Compound 109, 4-((2,5-difluorophenyl)amino)-N-methyl-3-(1-methyl-1H-tetrazol-5-yl)benzenesulfonamide]", "IC50": "> 3000"}
{"smiles": "CNS(=O)(=O)c1ccc(Nc2cccc(C(F)(F)F)c2)c(-c2nnn(Cc3ccccc3F)n2)c1", "note": "[Compound 136, 3-[2-[(2-Fluorophenyl)methyl]tetrazol-5-yl]-N-methyl-4-[3-(trifluoromethyl)anilino]benzene-sulfonamide]", "IC50": "≤ 100"}
{"smiles": "CNS(=O)(=O)c1ccc(NC2CCCCC2)c(-c2nnn(CC(F)(F)F)n2)c1", "note": "[Compound 39, 4-(cyclohexylamino)-N-methyl-3-(2-(2,2,2-trifluoroethyl)-2H-tetrazol-5-yl)benzenesulfonamide]", "IC50": "100 to 1000"}
{"smiles": "CNS(=O)(=O)c1ccc(NC2CCCCC2)c(-c2cccnc2)c1", "note": "[Compound 77, 4-(cyclohexylamino)-N-methyl-3-(pyridin-3-yl)benzenesulfonamide]", "IC50": "> 3000"}
{"smiles": "CCn1cncc1-c1cc(S(=O)(=O)NC)ccc1NC1CCCCC1", "note": "[Compound 114, 4-(cyclohexylamino)-3-(1-ethyl-1H-imidazol-5-yl)-N-methylbenzenesulfonamide]", "IC50": "> 3000"}
{"smiles": "CNS(=O)(=O)c1ccc(Nc2cc(F)cc(F)c2)c(-c2nnnn2C)c1", "note": "[Compound 107, 4-((3,5-difluorophenyl)amino)-N-methyl-3-(1-methyl-1H-tetrazol-5-yl)benzenesulfonamide]", "IC50": "> 3000"}
{"smiles": "CNS(=O)(=O)c1ccc(Nc2ccc(Cl)c(C(F)(F)F)c2)c(-c2cn(C)cn2)c1", "note": "[Compound 147, 4-[4-Chloro-3-(trifluoromethyl)anilino]-N-methyl-3-(1-methylimidazol-4-yl)benzenesulfonamide]", "IC50": "≤ 100"}
{"smiles": "CNS(=O)(=O)c1ccc(NC2CCCCC2)c(-c2nnn(C3CCCC3)n2)c1", "note": "[Compound 18, 4-(cyclohexylamino)-3-(2-cyclopentyl-2H-tetrazol-5-yl)-N-methylbenzenesulfonamide]", "IC50": "100 to 1000"}
{"smiles": "CNS(=O)(=O)c1ccc(Nc2cccc(Cl)c2)c(-c2cn(C)cn2)c1", "note": "[Compound 143, 4-(3-Chloroanilino)-N-methyl-3-(1-methylimidazol-4-yl)benzenesulfonamide]", "IC50": "≤ 100"}
{"smiles": "CC(C)(C)NS(=O)(=O)c1ccc(NC2CCCCC2)c(-c2nn[nH]n2)c1", "note": "[Compound 1, N-(tert-butyl)-4-(cyclohexylamino)-3-(2H-tetrazol-5-yl)benzenesulfonamide]", "IC50": "> 3000"}
{"smiles": "CNS(=O)(=O)c1ccc(Nc2ccc(Cl)cc2)c(-c2cn(C)cn2)c1", "note": "[Compound 139, 4-(4-chloroanilino)-N-methyl-3-(1-methylimidazol-4-yl)benzenesulfonamide]", "IC50": "≤ 100"}
{"smiles": "CNS(=O)(=O)c1ccc(NC2CCCCC2)c(-c2nnn(C3CN(C(=O)OC(C)(C)C)C3)n2)c1", "note": "[Compound 25, tert-butyl 3-(5-(2-(cyclohexylamino)-5-(N-methylsulfamoyl)phenyl)-2H-tetrazol-2-yl)azetidine-1-carboxylate]", "IC50": "> 3000"}
{"smiles": "CNS(=O)(=O)c1ccc(NC2CCCCC2)c(-c2nnn(C3CN(C(C)=O)C3)n2)c1", "note": "[Compound 49, 3-(2-(1-acetylazetidin-3-yl)-2H-tetrazol-5-yl)-4-(cyclohexylamino)-N-methylbenzenesulfonamide]", "IC50": "100 to 1000"}
{"smiles": "CNS(=O)(=O)c1ccc(NC2CCCCC2)c(-c2nc(C)n(C)n2)c1", "note": "[Compound 67, 4-(cyclohexylamino)-3-(1,5-dimethyl-1H-1,2,4-triazol-3-yl)-N-methylbenzenesulfonamide]", "IC50": "≤ 100"}
{"smiles": "CNS(=O)(=O)c1ccc(NC2CCCCC2)c(-c2nnn(C3CCN(c4cccnc4)CC3)n2)c1", "note": "[Compound 33, 4-(cyclohexylamino)-N-methyl-3-(2-(1-(pyridin-3-yl)piperidin-4-yl)-2H-tetrazol-5-yl)benzenesulfonamide]", "IC50": "100 to 1000"}
{"smiles": "CNS(=O)(=O)c1ccc(Nc2cccc(C(F)(F)F)c2)c(-c2ccnc(N)c2)c1", "note": "[Compound 152, 3-(2-Aminopyridin-4-yl)-N-methyl-4-((3-(trifluoromethyl)phenyl)amino) benzenesulfonamide]", "IC50": "1000 to 3000"}
{"smiles": "CNS(=O)(=O)c1ccc(NC2CCCCC2)c(-c2nnn(C3CCN(c4ccccc4)CC3)n2)c1", "note": "[Compound 38, 4-(cyclohexylamino)-N-methyl-3-(2-(1-phenylpiperidin-4-yl)-2H-tetrazol-5-yl)benzenesulfonamide]", "IC50": "> 3000"}
{"smiles": "CNS(=O)(=O)c1ccc(Nc2ccc(OC(F)(F)F)cc2)c(-c2nnnn2C)c1", "note": "[Compound 99, N-methyl-3-(1-methyl-1H-tetrazol-5-yl)-4-((4-(trifluoromethoxy)phenyl)amino)benzenesulfonamide]", "IC50": "> 3000"}
{"smiles": "CNS(=O)(=O)c1ccc(Nc2ccc(C(F)(F)F)cc2)c(-c2nnnn2C)c1", "note": "[Compound 96, N-methyl-3-(1-methyl-1H-tetrazol-5-yl)-4-((4-(trifluoromethyl)phenyl)amino)benzenesulfonamide]", "IC50": "> 3000"}
{"smiles": "CNS(=O)(=O)c1ccc(NC2CCCCC2)c(-c2ncccn2)c1", "note": "[Compound 56, 4-(cyclohexylamino)-N-methyl-3-(pyrimidin-2-yl)benzenesulfonamide]", "IC50": "≤ 100"}
{"smiles": "CNS(=O)(=O)c1ccc(NC2CCCCC2)c(-c2nnn(-c3ccc(F)cc3)n2)c1", "note": "[Compound 16, 4-(cyclohexylamino)-3-(2-(4-fluorophenyl)-2H-tetrazol-5-yl)-N-methylbenzenesulfonamide]", "IC50": "100 to 1000"}
{"smiles": "CNS(=O)(=O)c1ccc(NC2CCCCC2)c(-c2nnn(C3CCN(C(C)=O)CC3)n2)c1", "note": "[Compound 31, 3-(2-(1-acetylpiperidin-4-yl)-2H-tetrazol-5-yl)-4-(cyclohexylamino)-N-methylbenzenesulfonamide]", "IC50": "100 to 1000"}
{"smiles": "CNS(=O)(=O)c1ccc(NC2CCCCC2)c(-c2nnn(C3CCN(c4cccnc4)C3)n2)c1", "note": "(stereo not drawn) [Compound 68, 4-(cyclohexylamino)-N-methyl-3-(2-(1-(pyridin-3-yl)pyrrolidin-3-yl)-2H-tetrazol-5-yl)benzenesulfonamide]", "IC50": "100 to 1000"}
{"smiles": "CNS(=O)(=O)c1ccc(Nc2ccccc2OC(F)(F)F)c(-c2nnn(C)n2)c1", "note": "[Compound 102, N-methyl-3-(2-methyl-2H-tetrazol-5-yl)-4-((2-(trifluoromethoxy)phenyl)amino)benzenesulfonamide]", "IC50": "> 3000"}
